Measured values: US10618907B2, “Cell-permeable, cell-compatible, and cleavable linkers for covalent tethering of functional elements” (Promega Corporation, priority 2015, dated 2020)
“Also recorded” adds a separate entry of the source.

Tests used:
[1] = system: TNFα secretion in LPS stimulated THP-1 cells; test: Inhibition of TNFα secretion in LPS stimulated THP-1 cells (ELISA); assay type: cell-based, human; conditions: 2 h compound, LPS 250 ng/ml 24 h
Experimental: Bioactivity was measured through inhibition of TNFα secretion in LPS stimulated THP-1 cells (FIGS. 8A-8C). THP-1 cells were plated into wells of 96-well plates at 100,000 cells/well, treated with serial dilutions of BIRB796 conjugates for 2 hours, and then stimulated for 24 hours with LPS (Sigma) at final concentration of 250 ng/ml. The supernatant was analyzed for human TNFα secretion by ELISA (R&D Systems). […] Thus, it imposes minimal impact on the chloroalkane features.
Inhibition of mitogen-activated protein kinases (MAPK) by BIRB796 reduces production of proinflammatory cytokines such as TNFα. Influence of the linkers on BIRB796 potency was tested by comparing the BIRB796 conjugates for inhibition of TNFα secretion from LPS-stimulated THP-1 cells (FIG. 32). THP-1 cells were plated in 96-well plates at 100,000 cells/well, treated with serial dilutions of BIRB796 (Cayman Chemical) and BIRB796-chloroalkane conjugates for 2 h, and then stimulated with LPS (Sigma) at final concentration of 250 ng mL−1 for 24 h. Supernatants were analyzed for human TNFα secretion by ELISA (R&D systems). Results indicates inverse correlation between the length of the cleavable chloroalkane linker and its influence on BIRB796 potency.

[2] = system: HALOTAG protein; conditions: 1 μM conjugate, up to 60 min, lysate of cells expressing HALOTAG fusion
Experimental: The 4 BIRB* conjugates were compared for binding kinetics to a HALOTAG protein in a cell lysate or inside live cells. Binding kinetics to HALOTAG in lysate was measured by adding the BIRB*-chloroalkane conjugates to a lysate prepared from cells expressing a HALOTAG fusion protein at a final concentration of 1 μM. After 0-60 minutes incubation, a fraction of each reaction taken at different time points (each containing a different BIRB* conjugate) was removed, HALGOTAG TMR-fluorescent ligand (Promega Corporation) was added to a final concentration of 1 μM and allowed to bind to the HALOTAG protein (which remained unbound). The time point fractions were resolved on SDS-PAGE and scanned on a Typhoon 9400 fluorescent imager (GE Healthcare). Bands were quantitated using IMAGEQUANT (GE Healthcare), and binding kinetics were determined as the percent binding with time relative to time zero when no chloroalkylated compound was added.
Binding kinetics to HALOTAG in lysate (FIG. 23A) was measured by treating a lysate prepared from cells, expressing a HALOTAG fusion protein, with the Ibrutinib chloroalkane conjugates at a final concentration of 1 μM for up 60 minutes. After a specified incubation time, an aliquot was removed and treated with HALOTAG TMR-fluorescent ligand (Promega Corporation) at a final concentration of 1 μM to label the remaining unbound HALOTAG fusion protein. The aliquots were resolved on SDS-PAGE and scanned on a Typhoon 9400 fluorescent imager (GE Healthcare). Bands were quantitated using IMAGEQUANT (GE Healthcare), and binding kinetics was determined as the percent binding over time relative to time zero when no chloroalkane-tagged compound added.
Binding kinetics to HALOTAG in lysate (FIG. 31A) were measured by treating a lysate prepared from cells expressing a HALOTAG fusion protein with the BIRB796 chloroalkane conjugates at a final concentration of 1 μM for up to 60 minutes. After a specified incubation time, an aliquot was removed and treated with HALOTAG TMR-fluorescent ligand (Promega Corporation) at a final concentration of 1 μM to label the remaining unbound HALOTAG fusion protein. The aliquots were resolved on SDS-PAGE and scanned on a Typhoon 9400 fluorescent imager (GE Healthcare). Bands were quantitated using IMAGEQUANT (GE Healthcare), and binding kinetics was determined as the percent binding over time relative to time zero where no chloroalkane-tagged compound was added.

[3] = molecular target: T1, BTK:NLuc fusion (Homo sapiens, UniProt Q06187); test: Capture efficiency of BTK:NLuc fusion onto HALOTAG coated magnetic beads; assay type: binding; conditions: cell lysate, 1 μM conjugate, 2 hour
T1 construct: expressed in transfected cells
Experimental: To interrogate capture efficiency of an interacting cellular target, a known target of Ibrutinib, BTK, was genetically fused to NANOLUC (NLuc) luciferase reporter (Promega Corporation). Since Ibrutinib is a covalent inhibitor of BKT, a TEV recognition site was incorporated between BTK and NLuc to allow proteolytic release of NLuc from the beads. Following a 2 hour treatment of cell lysate (from cells expressing the BTK:NLuc fusion) with 1 μM Ibrutinib chloroalkane conjugates (final concentration), the Ibrutinib chloroalkane conjugates, and their interacting BTK:NLuc target, were captured onto HALOTAG coated magnetic beads (Promega Corporation). Capture efficiency was determined as the percent of lost in bioluminescence in the unbound fractions relative to the untreated cell lysate.

[4] = molecular target: T1, BTK:NLuc fusion; test: Release of captured BTK:NLuc from HALOTAG beads by TEV or palladium-catalyzed cleavage, western; conditions: anti-NLuc antibody
Experimental: To interrogate the efficiency of palladium-catalyzed cleavage of these linkers, the release of BTK:NLuc fusion covalently captured onto the HALOTAG beads was determined by two methods: i) TEV proteolytic cleavage and ii) palladium-catalyzed cleavage (FIG.
24B). TEV proteolytic cleavage of the fusion would lead to the release of NLuc while palladium catalyzed cleavage of the allyl carbamate group within the chloroalkane linker would result with the release of BTK:NLuc.

[5] = molecular target: purified ABL1 (Homo sapiens, UniProt P00519); test: Inhibition of purified ABL1 by ponatinib conjugates; assay type: biochemical
Excerpt: (§1) Two additional linkers were generated, one where the three other carbamates were replaced with amides, and the other where the two allyl carbamate groups were replaced with allyl ether linkages. […] The linkers were compared for their influence on binding to HALOTAG and ABL1 in biochemical and cellular assays.

[6] = system: STATS reporter expression; test: In-cell inhibition of STATS reporter expression by ponatinib conjugates; assay type: cell-based; conditions: cellular assay
Excerpt: as §1, with “CA-T4E contains 4 carbamate groups, one of them essential for rapid binding kinetics to HALOTAG. Two” for “Two”

[7] = system: HALOTAG protein; conditions: 10 μM conjugate, up to 90-120 min, live cells expressing HALOTAG
Experimental: Binding kinetics to HALOTAG inside cells was measured by treating live cells expressing a HALOTAG protein with the BIRB* chloroalkane conjugates at a final concentration of 10 μM. After 0-120 minutes incubation time points, the medium was replaced with medium containing 5 μM HALOTAG TMR-fluorescent ligand, and the cells were incubated for additional 15 minutes allowing the TMR-fluorescent ligand to bind to the HALOTAG protein (which remained unbound). After the media was removed, the cells were lysed with a detergent lysis buffer, and the time points were analyzed as described above.
Both conjugates were compared for binding kinetics to HALOTAG inside live cells and for bioactivity. Binding kinetics to HALOTAG inside cells was measured by treating live cells expressing a HALOTAG protein with the BIRB796 chloroalkane conjugates at a final concentration of 10 μM. […] Bands were quantitated, and the binding kinetics were determined as the percent binding with time relative to time zero when no chloroalkylated compound was added.
Binding kinetics to HALOTAG inside cells (FIG. 23B) was measured by treating live cells, expressing a HALOTAG fusion protein, with the Ibrutinib chloroalkane conjugates at a final concentration of 10 μM for up to 90 minutes. […] Cells were then lysed with a detergent lysis buffer, and the samples at the various time points were analyzed as described above. […]

T1 sequence (Q06187 whole entry, species assumed, the tested form may be a part): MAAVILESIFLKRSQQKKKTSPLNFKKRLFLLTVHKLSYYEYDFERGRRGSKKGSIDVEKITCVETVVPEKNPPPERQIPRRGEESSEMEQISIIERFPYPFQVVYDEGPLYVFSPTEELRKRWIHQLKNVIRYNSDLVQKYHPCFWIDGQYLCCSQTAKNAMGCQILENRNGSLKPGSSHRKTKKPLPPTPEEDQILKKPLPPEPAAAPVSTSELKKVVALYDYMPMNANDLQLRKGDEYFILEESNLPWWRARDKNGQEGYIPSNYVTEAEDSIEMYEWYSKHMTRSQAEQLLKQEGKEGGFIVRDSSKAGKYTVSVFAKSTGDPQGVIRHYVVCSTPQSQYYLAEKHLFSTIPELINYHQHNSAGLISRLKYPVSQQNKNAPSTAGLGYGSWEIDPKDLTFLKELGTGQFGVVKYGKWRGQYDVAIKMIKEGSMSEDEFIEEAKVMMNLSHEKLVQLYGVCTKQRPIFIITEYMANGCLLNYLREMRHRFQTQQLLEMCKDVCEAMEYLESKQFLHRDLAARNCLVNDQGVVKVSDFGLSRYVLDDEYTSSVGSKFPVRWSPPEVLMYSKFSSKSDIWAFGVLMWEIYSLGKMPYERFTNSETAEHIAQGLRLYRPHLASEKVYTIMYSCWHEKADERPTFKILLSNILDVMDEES
purified ABL1, sequence (P00519 whole entry, species assumed): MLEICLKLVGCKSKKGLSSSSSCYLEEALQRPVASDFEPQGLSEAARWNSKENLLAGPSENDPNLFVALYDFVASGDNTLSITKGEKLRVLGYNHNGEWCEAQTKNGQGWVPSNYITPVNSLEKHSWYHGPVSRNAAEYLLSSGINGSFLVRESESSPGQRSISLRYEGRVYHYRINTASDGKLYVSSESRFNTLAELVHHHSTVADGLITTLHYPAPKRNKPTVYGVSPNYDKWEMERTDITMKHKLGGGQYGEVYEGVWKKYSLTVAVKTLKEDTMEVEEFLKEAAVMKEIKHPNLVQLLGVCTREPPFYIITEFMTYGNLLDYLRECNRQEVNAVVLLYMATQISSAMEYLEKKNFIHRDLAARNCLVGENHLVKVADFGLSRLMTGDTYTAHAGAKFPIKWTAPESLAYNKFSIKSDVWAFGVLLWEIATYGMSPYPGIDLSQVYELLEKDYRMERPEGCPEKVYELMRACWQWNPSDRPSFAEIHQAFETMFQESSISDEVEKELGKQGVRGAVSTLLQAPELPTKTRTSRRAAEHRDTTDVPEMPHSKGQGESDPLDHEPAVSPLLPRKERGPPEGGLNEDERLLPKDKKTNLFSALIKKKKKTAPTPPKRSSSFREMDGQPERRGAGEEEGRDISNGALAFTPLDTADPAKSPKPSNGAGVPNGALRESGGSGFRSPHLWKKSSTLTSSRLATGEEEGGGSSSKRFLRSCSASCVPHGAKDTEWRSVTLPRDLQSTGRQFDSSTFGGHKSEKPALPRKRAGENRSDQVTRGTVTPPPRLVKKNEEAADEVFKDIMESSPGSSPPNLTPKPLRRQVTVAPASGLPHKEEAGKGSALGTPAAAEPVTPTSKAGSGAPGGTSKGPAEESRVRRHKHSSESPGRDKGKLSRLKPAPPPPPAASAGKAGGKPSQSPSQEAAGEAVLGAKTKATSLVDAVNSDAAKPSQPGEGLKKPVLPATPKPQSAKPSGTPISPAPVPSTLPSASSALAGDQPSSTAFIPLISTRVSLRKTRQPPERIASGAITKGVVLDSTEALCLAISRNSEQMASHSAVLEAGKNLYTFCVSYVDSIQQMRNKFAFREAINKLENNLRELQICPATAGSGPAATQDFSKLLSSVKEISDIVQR

| Structure (SMILES) | binding kinetics to HALOTAG in lysate [2] | capture efficiency of BTK:NLuc [3] | also measured |
| --- | --- | --- | --- |
| CC(C)(C)c1cc(NC(=O)Nc2ccc(OCCN3CCOCC3)c3ccccc23)n(-c2cccc(CNC(=O)OCCOCCOCCNC(=O)OC/C=C/COC(=O)NCCOCCOCCOC(=O)NCCOCCOCCCCCCCl)c2)n1 [BIRB796-CA-T4E] | faster binding to HALOTAG than respective linkers with a cis-double bond; also recorded: most similar to the non-cleavable linker CA-T1 |  | inhibition of TNFα secretion (potency) [1]: potency similar to non-cleavable linker CA-T1 |
| CC(C)(C)c1cc(NC(=O)Nc2ccc(OCCN3CCOCC3)c3ccccc23)n(-c2cccc(CNC(=O)OC/C=C\COC(=O)NCCOCCOCCCCCCCl)c2)n1 [CA-T0] | lower binding kinetics to HALOTAG |  |  |
| CC(C)(C)c1cc(NC(=O)Nc2ccc(OCCN3CCOCC3)c3ccccc23)n(-c2cccc(CNC(=O)OC/C=C/COCCOC(=O)NCCOCCOCCCCCCCl)c2)n1 [CA-T2E] | faster binding to HALOTAG than respective linkers with a cis-double bond |  |  |
| CC(C)(C)c1cc(NC(=O)Nc2ccc(OCCN3CCOCC3)c3ccccc23)n(-c2cccc(CNC(=O)OC/C=C/COC(=O)NCCOCCOCCOC(=O)NCCOCCOCCCCCCCl)c2)n1 [CA-T3E] | faster binding to HALOTAG than respective linkers with a cis-double bond |  |  |
| CC(C)(C)c1cc(NC(=O)Nc2ccc(OCCN3CCOCC3)c3ccccc23)n(-c2cccc(CNC(=O)OCCOCCOCCNC(=O)OC/C=C\COC(=O)NCCOCCOCCOC(=O)NCCOCCOCCCCCCCl)c2)n1 [CA-T4Z] |  |  | inhibition of TNFα secretion (potency) [1]: potency similar to non-cleavable linker CA-T1 |
| Nc1ncnc2c1c(-c1ccc(Oc3ccccc3)cc1)nn2[C@@H]1CCCN(C(=O)/C=C/CNC(=O)OC/C=C\COCCOC(=O)NCCOCCOCCCCCCCl)C1 [PBI-6025] |  | reduced capture efficiency relative to PBI-6040 |  |
| Nc1ncnc2c1c(-c1ccc(Oc3ccccc3)cc1)nn2[C@@H]1CCCN(C(=O)/C=C/CNC(=O)OC/C=C/COCCOC(=O)NCCOCCOCCCCCCCl)C1 [PBI-6027] |  | reduced capture efficiency relative to PBI-6040 |  |
| Nc1ncnc2c1c(-c1ccc(Oc3ccccc3)cc1)nn2[C@@H]1CCCN(C(=O)/C=C/CNC(=O)OC/C=C/COC(=O)NCCOCCOCCOC(=O)NCCOCCOCCCCCCCl)C1 [PBI-6029] |  | did not interfere with capture efficiency |  |
| Nc1ncnc2c1c(-c1ccc(Oc3ccccc3)cc1)nn2[C@@H]1CCCN(C(=O)/C=C/CNC(=O)OC/C=C\COC(=O)NCCOCCOCCOC(=O)NCCOCCOCCCCCCCl)C1 [PBI-6030] |  | did not interfere with capture efficiency |  |
| Nc1ncnc2c1c(-c1ccc(Oc3ccccc3)cc1)nn2[C@@H]1CCCN(C(=O)/C=C/CNC(=O)OC/C=C\COC(=O)NCCOCCOCCCCCCCl)C1 [PBI-6041] | lower binding kinetics to HALOTAG | reduced capture efficiency relative to PBI-6040 | release of NLuc by TEV proteolytic cleavage [4]: lower release |
| Cc1ccc(C(=O)Nc2ccc(CN3CCN(CCCNC(=O)CCOCCOCCC(=O)NC/C=C/CNC(=O)CCOCCOCCOC(=O)NCCOCCOCCCCCCCl)CC3)c(C(F)(F)F)c2)cc1C#Cc1cnc2cccnn12 [ponatinib-tri-amide] |  |  | inhibition of purified ABL1 [5]: comparable inhibition of purified ABL1; decrease of ponatinib potency relative to CA-T4E and all PEG linkers [6]: 20 fold; binding kinetics to HALOTAG inside live cells (cellular permeability) [7]: reduced binding kinetics to intracellular HALOTAG |
